Source: PMC3529812 (Journal of immunology (Baltimore, Md. : 1950), 2012)

Experiments:
[1] = tested on: 20S proteasome; assay: 20S proteasome cleavage assay with LC-MS of cleavage products; format: biochemical, human; details: 10 μM lactacystin; substrate 23 mer; compared to uninhibited proteasome reaction
[2] = biological target: HLA-A2 (Homo sapiens, UniProt P04439, D140Y/D185E/D98H/E176V/E277Q/G131W/G231S/I119V/I121R/I166T/I218V/L300P/L318F/N151K/N90K/P208A/P217A/Q86G/Q94H/R138H/R169H/T345S); assay: T2 HLA-A2 stabilization assay; format: cell-based

Compound | Effect of lactacystin on generation of p373–382 by proteasome [1] | EC50 [2] [µM]
CC(=O)N[C@@H](CSC(=O)[C@]1([C@@H](O)C(C)C)NC(=O)[C@H](C)[C@@H]1O)C(=O)O [lactacystin] | not completely blocked | 
CC(C)C[C@H](NC(=O)[C@@H](N)CO)C(=O)N[C@@H](C)C(=O)N[C@@H](Cc1ccccc1)C(=O)N[C@@H](CC(C)C)C(=O)N1CCC[C@H]1C(=O)N[C@@H](CCC(=O)O)C(=O)N[C@@H](CO)C(=O)N[C@@H](Cc1ccccc1)C(=O)N[C@@H](CC(=O)O)C(=O)O [p373–382] |  | 1.8
